Patent publication US20100267638A1, “EXOSITE-DIRECTED THROMBIN INHIBITORS” (CLEVELAND STATE UNIVERSITY, priority 2003, published 2010)
Where “and” joins values, the source holds several entries; their conditions need not be identical. Identical values can stand only once. Entries after “also recorded” stand apart in the source; their conditions may differ. No end group written: not given here. *: point of attachment. SO3 = O=S(=O)(O)*

Columns and labels:
factor Xa = factor Xa (Homo sapiens, UniProt P00742); assay: Cofactor effect of factor Va heavy chain peptides on factor Xa alone; type: biochemical; conditions: peptide incubated with factor Xa alone
prothrombinase = target: T1, prothrombinase (Homo sapiens, UniProt P00734); assay: Assay measuring thrombin formation (prothrombinase inhibition by peptides, DAPA fluorescence); type: biochemical; conditions: for inhibition of prothrombinase activity with increasing peptide: FIG. 10A, up to 8000 nM; for effect on prothrombinase / factor Va cofactor activity at fixed concentration: peptide 100 μM
T1 construct: purchased Haematologic Technologies Inc. (Essex Junction, Vt.)
Experimental: Assay measuring thrombin formation. The formation of thrombin was analyzed using the fluorescent thrombin inhibitor DAPA as described using a Perkin Elmer LS-50B Luminescence Spectrometer (Perkin-Elmer LLC, Norwalk Conn.) with λex=280 nm, λem=550 nm and a 500 nm long pass filter in the emission beam (Schott KV-500). […] In all cases peptides were preincubated with factor tor Va prior to the assay as described in the legend to the figures. The final concentration of factor tor Va in the mixture was 4 nM with factor Xa at 10 nM, prothrombin at 350 nM, DAPA at 700 nM, in the presence of PCPS vesicles (10 μM). The initial rate of thrombin formation (nM IIa·min^−1) was calculated as described during the initial 5-10 sec of the reaction. To verify if the peptides have any effect on the active-site of thrombin, control experiments were performed as follows: a given peptide (at 100 μM) was incubated in the assay buffer containing DAPA (700 nM); the base line was monitored for 30 sec; thrombin (350 nM) was then added to the mixture and the fluorescent intensity resulting from the complexation of DAPA with the active site of thrombin was monitored for 60 sec. The slope of the reaction measuring thrombin formation in the presence of a given peptide during the first 5 sec was calculated and compared to the slope of a reaction obtained in the absence of peptide. It is noteworthy that under the conditions employed the thrombin-DAPA interaction occurred fast and the calculated slope of the reaction was sensitive to all parameters used. […] All experiments were performed in triplicates or as indicated. The concentration of each peptide given in the figures and figure legends is their final concentration in the assay. […] In some cases the data were also analyzed and plotted using DeltaGraph (DeltaPoint, Monterey, Calif.).
Specifically, peptides were incubated with factor tor Va as described herein at a fixed concentration (100 μM). The percent of factor tor Va cofactor activity was calculated by comparing the activity of prothrombinase in the presence of a given peptide to the activity of prothrombinase determined in a control reaction in the absence of peptide and in the presence of factor Xa. […] The control peptide represents a pentadecapeptide from the middle portion of factor tor Va heavy chain (P15H) (SEQ ID NO. 22). […] All other peptides from region 680-709 had no significant effect on prothrombinase activity.
HC3 represents amino acid sequence 690-699 of factor tor Va heavy chain; HC4 contains the sequence 695-704 of human factor tor Va heavy chain; P15H represents amino acid sequence 337-351 from the middle portion of human factor tor Va heavy chain. […] The concentration of each peptide given on the x axis represents its final concentration in the prothrombinase mixture. […] Thus, both peptides show similar inhibitory potential.

[1] = Clotting time as a function of peptide concentration (FIG. 12); conditions: peptide 500 nM
Source text: FIG. 12 is a graph illustrating clotting time as a function of concentration of various peptides of interest as follows: DYDYQ (SEQ ID NO. 11) (filled squares); DYDYQ (1, 2) (or as designated in shorthand form, D5Q1,2) (SEQ ID NO. 9) (filled triangles); DYDYQ-1 (SEQ ID NO. 7) (filled inverted triangles); and DYDYQ-2 (SEQ ID NO. 8) (filled diamonds).

[2] = target: T2, active-site-immobilized thrombin (Homo sapiens, UniProt P00734); assay: Direct binding of the peptides to thrombin-agarose (chromatography); conditions: 400 μg peptide, 2.5 ml column, elution 2M NaCl
T2 construct: Factor Xa cleaves prothrombin to form thrombin; purchased Haematologic Technologies Inc. (Essex Junction, Vt.)
Experimental: Direct binding of the peptides to thrombin. Thrombin was immobilized onto agarose through the active site as described. Peptide solutions of HC1-HC5 (SEQ ID NO. 2-6, respectively), D13R (SEQ ID NO. 21), DYDYQ (SEQ ID NO. 11), and P15H (SEQ ID NO. 22) were dissolved in water to a given concentration and then diluted in 20 mM Hepes, 0.1 M NaCl, pH 7.4 in a manner that 400 μg was contained in each starting solution. In control experiments it was determined that the maximum amount of peptide that could be retained by the thrombin-agarose column was 400 μg. Since some of the peptides contain aromatic amino acid residues, their concentration was also measured by optical density.
Mass spectrometry instruments and conditions. The identity of all peptides found in the flow-through or the elution of the thrombin-agarose column was verified by mass spectrometry. Since the peptides were in a buffer solution, we used Liquid Chromatography/Mass Spectrometry (LC/MS) for their identification. In this procedure peptides are first separated from the salt content of the buffer using an HPLC system (HP 1100, HPLC gradient system, Agilent Technologies, Palo Alto Calif.) with a C18 column (1 mm×15 cm, GraceVydac, Hesperia Calif.) with buffers A (0.3% acetic acid in water) and B (0.3% acetic acid in acetonitrile). The elution of the column was monitored with a Micromass Quatro II ESI-Triple Quadrupole Mass Spectrometer (Waters, Milford Mass.). The data were collected using a Compaq Professional Workstation AP200 (Hewlett-Packard, Palo Alto Calif.) and analyzed by the software MassLynx v3.3 (Waters, Milford Mass.).
Direct interaction of hirudin-like peptides from factor tor Va heavy chain With thrombin-agarose. To ascertain that the peptides of interest are inhibitory of prothrombinase activity and contain a binding site for thrombin, the interaction of all peptides with active-site-immobilized thrombin was studied in chromatographic experiments and is shown in FIG. 5. In FIG. 5, small scale chromatography of hirudin-like peptides was performed on a 2.5 ml thrombin-agarose. Each run represents 400 μg of peptide. This amount of peptide was determined to saturate the specific sites of thrombin of the column used (2.5 ml). Elution was performed with 2M NaCl and was started at the point indicated by the arrow (fraction #30). The presence of the peptides in the corresponding fractions was monitored by absorbance at 280 nm (shown on the y axis) and by LC/MS (inset). […] Specifically, these peptides were treated similarly to all other peptides and similar fractions were collected. Aliquots from fractions #7 and #35 from each separate experiment were submitted to LC/MS analysis as described herein (depicted by the hatched arrows at the bottom of the chromatogram). The results from tube #7 from three chromatograms are depicted. The data are presented as % intensity of the signal as a function of the mass of the peptide divided by the charge (m/z). FIG. 5A, HC1 (Mr calculated 1268); FIG. 5B, HC2 (Mr calculated 1132); FIG. 5C, HC5 (Mr calculated 1053). The spectrum of HC1 has two major peaks: at 635.5 and at 424, and one minor peak at 1270 (1268+1). The peak at 635.5 represents the peptide (mass/charge) with two positive charges ([…]) i.e. [(1268+2=1270)]/2=635 whereas, the peak at 424 represents HC1 with three positive charges ([…]) i.e. [(1268+3=1271)]/3=424. […] HC5 spectrum has two major peaks: one at 528 and one at 352. The peak at 528 represents the peptide with two positive charges ([…]) i.e. [(1053+2=1055)]/2=527.5 while, the other peak represents HC5 with three positive charges ([M+31-]^2+) i.e. [(1053+3=1056)]/3=352. The minor peak at 1054 represents the peptide with one charge. It is noteworthy, that in gas phase the number of protons attached to each peptide depends on the number (quantity) of basic residues contained in each peptide. […] Thus, HC1 and HC5 are more likely to bind two or three protons than HC2. […]

[3] = target: T3, [OG488]-EGR-hXa-human factor tor Va (Homo sapiens, UniProt P00742); assay: Fluorescence anisotropy of preformed membrane-bound [OG488]-EGR-hXa-factor Va complex; type: binding; conditions: up to 300 μM peptide
T3 construct: purchased Haematologic Technologies Inc. (Essex Junction, Vt.)
Experimental: Fluorescence Anisotropy measurements. Fluorescence anisotropy of [OG488]-EGR-hXa was measured using a Perkin Elmer LS-50B Luminescence Spectrometer in L-format as recently described. Anisotropy measurements were performed in a quartz cuvette under constant stirring (low) with λex=490 nm, λem=520 nm with a long pass filter (Schott KV-520) in the emission beam. […] The concentration of peptide given in each graph is the final concentration of the peptide in the assay mixture. […] In some cases the data were also plotted using DeltaGraph (DeltaPoint, Monterey, Calif.).
HC3 and HC4 were also tested for their ability to interfere with the fluorescence anisotropy of a preformed complex composed of membrane-bound [OG488]-EGR-hXa-human factor tor Va as described. […] The peptides must thus impair another function of the cofactor within prothrombinase.

[4] = test system: factor V deficient plasma; assay: Clotting activity of recombinant factor V molecules; conditions: for Activity / Specific activity / clotting time: factor V species at 2.5 nM
Experimental: Determination of factor V/tor Va clotting activity of the recombinant molecules. Cofactor activity of wild type and mutant molecules was measured in a clotting assay using factor V deficient plasma prior and after activation by thrombin (15 min, 37° C.) and RVV-V activator (2 hr, 37° C.) as described. The values were standardized to the percentage of control. A linear semi-log graph was constructed using known concentrations of purified factor V (U/ml as a function of clotting time). The assay endpoint was determined by visualization of the fibrin clot. The activity of the factor VNa solution (U/ml) was determined by extrapolation from the graph. The concentration of the recombinant molecules was determined by a recently described ELISA. Finally, the numbers were combined to obtain the specific activity of the recombinant factor V solutions (U/mg).

Sequence of factor Xa (P00742 235-488 limits assumed): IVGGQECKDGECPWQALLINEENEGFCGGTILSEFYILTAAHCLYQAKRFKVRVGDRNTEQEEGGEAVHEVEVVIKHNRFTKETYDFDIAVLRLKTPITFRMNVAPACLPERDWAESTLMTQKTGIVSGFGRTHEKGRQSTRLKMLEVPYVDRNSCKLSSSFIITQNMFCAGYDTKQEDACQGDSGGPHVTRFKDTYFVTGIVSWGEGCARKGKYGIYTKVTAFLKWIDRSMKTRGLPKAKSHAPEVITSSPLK
Sequence of factor Xa (P00742 41-179 limits assumed): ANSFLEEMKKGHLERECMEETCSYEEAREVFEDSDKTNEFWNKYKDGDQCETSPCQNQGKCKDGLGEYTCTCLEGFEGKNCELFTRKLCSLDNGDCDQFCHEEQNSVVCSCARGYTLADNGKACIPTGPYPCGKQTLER
T3 sequence (P00742 41-179 limits assumed): as above
T3 sequence (P00742 235-488 limits assumed): as the sequence (P00742 235-488 limits assumed) above

AP4′: nine amino acid peptide, residues 323-331, from N42R (EYFIAAEEV; listed as Homo sapiens)
cofactor effect on factor Xa (factor Xa): generated a cofactor effect

DY(—SO3)DYQ (DY(SO3)DYQ) [DYDYQ-1, DYDYQ with first Y sulfonated]
inhibition of prothrombinase activity with increasing peptide (prothrombinase): significant inhibitory effects | clotting time [1]: relatively long clotting times

DYDY(—SO3)Q (DYDY(SO3)Q) [DYDYQ-2, DYDYQ with second Y sulfonated]
inhibition of prothrombinase activity with increasing peptide (prothrombinase): significant inhibitory effects | clotting time [1]: relatively long clotting times

DYDYQNRLAA [HC4]
Vmax of prothrombinase in presence of increasing peptide (prothrombinase; HC4 0.5-2 μM, increasing prothrombin): ~525±30 nM IIa/min | Ki (prothrombinase; calculated from IC50=Ki(1+S0/Km), Km 0.4 μM, S0 350 nM prothrombin, read-out: Ki of prothrombinase inhibition): 5.3 µM and ~5.3 µM | IC50 (prothrombinase; factor Va 4 nM, factor Xa 10 nM, prothrombin 350 nM, PCPS 10 μM, peptide preincubated with factor Va): 10 µM and ~10 µM | type of inhibition of prothrombinase with respect to prothrombin (prothrombinase; kinetic analyses, increasing prothrombin and peptide): competitive type of inhibition; also recorded: competitive inhibitors | effect on prothrombinase / factor Va cofactor activity at fixed concentration (prothrombinase): inhibited prothrombinase; also recorded: complete inhibition | interaction with immobilized thrombin (thrombin-agarose) [2]: eluted from the column with high-salt buffer; also recorded: interact with immobilized thrombin | interference with binding of factor Va to [OG488]-EGR-hXa (anisotropy) [3]: No significant decrease; also recorded: unable to interfere with the binding of factor tor Va

E5A: five amino acid peptide, residues 323-327, from N42R (EYFIA; listed as Homo sapiens)
cofactor effect on factor Xa (factor Xa): generated a cofactor effect

Factor V^2K2F: quadruple mutant, recombinant human factor V with mutations D695→K, Y696→F, D697→K, Y698→F
ability to promote clotting [4]: unable to promote clotting | Activity [4]: 0.0046 U/ml | Specific activity [4]: 5.6 U/mg | clotting time [4]: 66.7 ± 1.3 s

HC1: overlapping 10 amino acid peptide from region 680-709 of human factor Va heavy chain (KMHDRLEPED; listed as Homo sapiens)
interaction with immobilized thrombin (thrombin-agarose) [2]: present in the flow-through

HC2: overlapping 10 amino acid peptide from region 680-709 of human factor Va heavy chain (LEPEDEESDA; listed as Homo sapiens)
interaction with immobilized thrombin (thrombin-agarose) [2]: present in the flow-through

N42R: 42 amino acid peptide from the middle portion of factor Va heavy chain, residues 307-351 of factor V (NLKKITREQRRHMKRWEYFIAAEEVIWDYAPVIPANMDKKYR; listed as Homo sapiens)
cofactor effect on factor Xa (factor Xa): increasing the catalytic efficiency of the enzyme by several-fold

P15H: negative control pentadecapeptide, amino acid sequence 337-351 from the middle portion of human factor Va heavy chain (PVIPANMDKKYRSQH) [reference compound]
effect on prothrombinase / factor Va cofactor activity at fixed concentration (prothrombinase): no effect on cofactor activity; also recorded: no effect on prothrombinase function | interaction with immobilized thrombin (thrombin-agarose) [2]: did not interact with thrombin

Wild type FV: recombinant wild type human factor V expressed in COS-7L cells
specific clotting activity after activation by RVV-V activator ([4]; activated by RVV-V activator): 570 U/mg | specific clotting activity after activation by thrombin ([4]; activated by thrombin): 497 U/mg | Activity [4]: 0.12 U/ml | Specific activity [4]: 145 U/mg | clotting time [4]: 32.1 ± 1.2 s
